Converted amounts (≈) assume the structure as drawn. “And” between values parts separate entries of the source, which are not always exact repeats. Equal values may be shown once.
Legend:
Test in all cases: ≥ marks a high value that may be exact or a test limit, other limits are often not marked, values filed in µg/mL are converted to µM
[1] = system: Staphylococcus aureus ATCC 29213
[2] = system: Escherichia coli ATCC 25922
[3] = system: Staphylococcus aureus ATCC 25923
Escherichia coli = system: Escherichia coli
Pseudomonas aeruginosa = system: Pseudomonas aeruginosa
[4] = system: Pseudomonas aeruginosa ATCC 27853
Staphylococcus aureus = system: Staphylococcus aureus
[5] = system: Staphylococcus epidermidis ATCC 12228
[6] = system: Candida albicans ATCC 90028
[7] = system: Salmonella typhimurium KCTC 1926

SMILES: CC[C@H](C)[C@H](NC(=O)[C@H](CCCN=C(N)N)NC(=O)[C@H](CCC(N)=O)NC(=O)[C@H](CO)NC(=O)[C@@H](NC(=O)[C@H](CCCN=C(N)N)NC(=O)[C@H](CCCCN)NC(=O)[C@@H](N)Cc1ccccc1)[C@@H](C)CC)C(=O)N[C@@H](CCCCN)C(=O)N[C@@H](CC(=O)O)C(=O)N[C@@H](Cc1ccccc1)C(=O)N[C@@H](CC(C)C)C(=O)N[C@@H](CCCN=C(N)N)C(=O)O [FKRISQRIKDFLR]
- MIC [1]: > 40 µM
- MIC [2]: 5 µM (≈ 8.54 µg/mL)

SMILES: CC[C@H](C)[C@H](NC(=O)CN)C(=O)NCC(=O)N[C@@H](C)C(=O)N[C@H](C(=O)N[C@@H](CC(C)C)C(=O)N[C@@H](CCCCN)C(=O)N[C@H](C(=O)N[C@@H](CC(C)C)C(=O)N[C@H](C(=O)N[C@H](C(=O)NCC(=O)N[C@@H](CC(C)C)C(=O)N1CCC[C@H]1C(=O)N[C@@H](C)C(=O)N[C@@H](CC(C)C)C(=O)N[C@H](C(=O)N[C@@H](CCCCN)C(=O)N[C@@H](CCCN=C(N)N)C(=O)N[C@@H](CCCCN)C(=O)N[C@@H](CCCN=C(N)N)C(=O)N[C@@H](CCC(N)=O)C(=O)N[C@@H](CCC(N)=O)C(=O)O)[C@@H](C)CC)[C@@H](C)O)[C@@H](C)O)C(C)C)C(C)C [GIGAVLKVLTTGLPALIKRKRQQ]
- MIC [3]: 0.0508 µM (≈ 0.125 µg/mL)
- MIC [2]: 1.02 µM (≈ 2.5 µg/mL)
- MIC (Escherichia coli): 0.359 µM (≈ 0.884 µg/mL)
- MIC (Pseudomonas aeruginosa): 1.44 µM (≈ 3.54 µg/mL)
- MIC [4]: 2.03 µM (≈ 5 µg/mL)

SMILES: CC[C@H](C)[C@H](NC(=O)CN)C(=O)NCC(=O)N[C@@H](CCCCN)C(=O)N[C@@H](Cc1ccccc1)C(=O)N[C@H](C(=O)N[C@@H](Cc1cnc[nH]1)C(=O)N[C@@H](CO)C(=O)N[C@H](C(=O)N[C@@H](CCCCN)C(=O)N[C@@H](CCCCN)C(=O)N[C@@H](Cc1c[nH]c2ccccc12)C(=O)NCC(=O)N[C@@H](CCCCN)C(=O)N[C@H](C(=O)N[C@@H](Cc1ccccc1)C(=O)N[C@H](C(=O)NCC(=O)N[C@@H](CCC(=O)O)C(=O)N[C@H](C(=O)N[C@@H](CCSC)C(=O)N[C@@H](CC(N)=O)C(=O)N[C@@H](CO)C(N)=O)[C@@H](C)CC)[C@@H](C)CC)[C@@H](C)O)C(C)C)[C@@H](C)CC [GIGKFIHSVKKWGKTFIGEIMNS]
- MIC (Escherichia coli): 2.3 µM (≈ 5.93 µg/mL)
- MIC (Pseudomonas aeruginosa): 18 µM (≈ 46.4 µg/mL)
- MIC (Staphylococcus aureus): 18 µM (≈ 46.4 µg/mL)

SMILES: CC[C@H](C)[C@H](N)C(=O)N[C@H](C(=O)N[C@@H](CO)C(=O)N[C@H](C(=O)N[C@H](C(=O)NCC(=O)N[C@@H](CCCCN)C(=O)N[C@@H](CC(C)C)C(=O)N[C@H](C(=O)N[C@@H](CCCCN)C(=O)N[C@@H](Cc1c[nH]c2ccccc12)C(=O)N[C@H](C(=O)N[C@H](C(=O)N[C@@H](CCCCN)C(=O)N[C@H](C(=O)N[C@H](C(=O)N[C@@H](CC(N)=O)C(=O)N[C@@H](CCCCN)C(=O)N[C@@H](Cc1ccccc1)C(=O)N[C@H](C(=O)N[C@@H](CCCCN)C(=O)N[C@@H](CCCCN)C(=O)O)[C@@H](C)O)C(C)C)[C@@H](C)O)[C@@H](C)CC)[C@@H](C)CC)C(C)C)[C@@H](C)CC)[C@@H](C)O)[C@@H](C)CC [IISTIGKLVKWIIKTVNKFTKK]
- MIC (Escherichia coli): 2.7 µM (≈ 6.91 µg/mL)
- MIC (Staphylococcus aureus): 4.7 µM (≈ 12 µg/mL)

SMILES: CC[C@H](C)[C@H](N)C(=O)N[C@@H](Cc1c[nH]c2ccccc12)C(=O)N[C@@H](CCCN=C(N)N)C(=O)N[C@H](C(=O)N[C@@H](Cc1ccccc1)C(=O)N[C@@H](CCCN=C(N)N)C(=O)N[C@@H](CCCN=C(N)N)C(=O)N[C@H](C(=O)N[C@@H](Cc1ccccc1)C(=O)N[C@@H](CCCN=C(N)N)C(=O)N[C@H](C(=O)N[C@@H](Cc1ccccc1)C(N)=O)[C@@H](C)CC)[C@@H](C)CC)[C@@H](C)CC [IWRIFRRIFRIF]
- MIC [1]: 1 µM (≈ 1.72 µg/mL)
- MIC [5]: 2 µM (≈ 3.44 µg/mL)
- MIC [2]: 4 µM and 8 µM
- MIC [4]: 4 µM (≈ 6.89 µg/mL)

SMILES: CC[C@H](C)[C@H](N)C(=O)N[C@@H](Cc1c[nH]c2ccccc12)C(=O)N[C@@H](CCCN=C(N)N)C(=O)N[C@H](C(=O)N[C@@H](Cc1ccccc1)C(=O)N[C@@H](CCCN=C(N)N)C(N)=O)[C@@H](C)CC [IWRIFR]
- MIC [1]: 128 µM (≈ 114 µg/mL)
- MIC [5]: 64 µM (≈ 56.9 µg/mL)
- MIC [2]: 128 µM (≈ 114 µg/mL)
- MIC [4]: 128 µM (≈ 114 µg/mL)

SMILES: CC(C)C[C@H](NC(=O)[C@H](C)NC(=O)[C@H](CC(C)C)NC(=O)[C@@H](N)CCCCN)C(=O)N[C@@H](CCCCN)C(=O)N[C@@H](C)C(=O)N[C@@H](C)C(=O)N[C@@H](C)C(=O)N[C@@H](CCCCN)C(=O)N[C@@H](C)C(=O)N[C@@H](Cc1c[nH]c2ccccc12)C(=O)N[C@@H](CCCCN)C(=O)N[C@@H](C)C(=O)N[C@@H](C)C(=O)N[C@@H](C)C(=O)N[C@@H](CCCCN)C(=O)N[C@@H](C)C(=O)N[C@@H](C)C(N)=O [KLALKAAAKAWKAAAKAA]
- MIC (Escherichia coli): 91 µM (≈ 162 µg/mL)
- MIC (Pseudomonas aeruginosa): > 91 µM
- MIC (Staphylococcus aureus): > 91 µM

SMILES: CC(=O)N[C@@H](CCCCN)C(=O)N[C@@H](CC(C)C)C(=O)N[C@@H](CC(C)C)C(=O)N[C@@H](CCCCN)C(=O)N[C@@H](CC(C)C)C(=O)N1CCC[C@H]1C(=O)N[C@@H](CCCCN)C(=O)N[C@@H](CCCCN)C(=O)N[C@@H](CC(C)C)C(=O)N[C@@H](CC(C)C)C(=O)N[C@@H](CCCCN)C(=O)N[C@@H](CC(C)C)C(=O)N[C@@H](CC(C)C)C(=O)N[C@@H](CCCCN)C(N)=O [KLLKLPKKLLKLLK]
- MIC [1]: > 80 µM
- MIC [2]: > 80 µM

SMILES: CC[C@H](C)[C@H](NC(=O)[C@H](CCCN=C(N)N)NC(=O)[C@H](CCC(N)=O)NC(=O)[C@H](C)NC(=O)[C@H](C)NC(=O)[C@H](CCCN=C(N)N)NC(=O)[C@@H](N)CCCCN)C(=O)N[C@@H](CCCCN)C(=O)N[C@@H](C)C(=O)N[C@@H](Cc1ccccc1)C(=O)N[C@@H](CC(C)C)C(=O)N[C@@H](CCCN=C(N)N)C(=O)O [KRAAQRIKAFLR]
- MIC [1]: 10 µM (≈ 14.6 µg/mL)
- MIC [2]: 2.5 µM (≈ 3.64 µg/mL)
- MIC [6]: ≥ 40 µM
- MIC [4]: 5 µM (≈ 7.29 µg/mL)

SMILES: CC[C@H](C)[C@H](NC(=O)[C@H](CCCN=C(N)N)NC(=O)[C@H](CCC(N)=O)NC(=O)[C@@H](NC(=O)[C@@H](NC(=O)[C@H](CCCN=C(N)N)NC(=O)[C@@H](N)CCCCN)[C@@H](C)CC)C(C)C)C(=O)N[C@@H](CCCCN)C(=O)N[C@@H](CC(=O)O)C(=O)N[C@@H](Cc1ccccc1)C(=O)N[C@@H](CC(C)C)C(=O)N[C@@H](CCCCN)C(=O)O [KRIVQRIKDFLK]
- MIC [1]: 10 µM (≈ 15.4 µg/mL)
- MIC [2]: 5 µM (≈ 7.72 µg/mL)
- MIC [6]: 10 µM (≈ 15.4 µg/mL)
- MIC [4]: 5 µM (≈ 7.72 µg/mL)

SMILES: CC(C)C[C@H](NC(=O)[C@H](CCCCN)NC(=O)[C@H](CC(C)C)NC(=O)[C@H](CC(C)C)NC(=O)[C@H](CCCCN)NC(=O)[C@H](CCCCN)NC(=O)[C@H](Cc1cnc[nH]1)NC(=O)[C@H](CC(C)C)NC(=O)[C@H](CCCCN)NC(=O)[C@H](CC(C)C)NC(=O)[C@H](CC(C)C)NC(=O)[C@H](CCCCN)NC(=O)[C@H](CCCCN)NC(=O)[C@@H](N)CC(C)C)C(=O)N[C@@H](C)C(=O)NCC(=O)O [LKKLLKLHKKLLKLAG]
- MIC [1]: > 40 µM
- MIC [2]: 2.5 µM (≈ 4.61 µg/mL)

SMILES: CC[C@H](C)[C@H](NC(=O)[C@H](CCCCN)NC(=O)[C@H](CCCCN)NC(=O)[C@@H](N)CCC(N)=O)C(=O)N[C@@H](CCCN=C(N)N)C(=O)N[C@H](C(=O)N[C@@H](C)C(=O)N[C@@H](CC(C)C)C(=O)N[C@@H](CO)C(=O)N[C@@H](C)C(=O)O)C(C)C [QKKIRVALSA]
- MIC [1]: > 57.5 µM
- MIC [2]: 14.4 µM (≈ 16 µg/mL)
- MIC [4]: 14.4 µM (≈ 16 µg/mL)

SMILES: CC[C@H](C)[C@H](NC(=O)[C@@H](NC(=O)[C@@H](NC(=O)[C@H](CCCN=C(N)N)NC(=O)[C@@H](NC(=O)[C@@H](NC(=O)[C@H](CC(C)C)NC(=O)[C@@H]1CCCN1C(=O)[C@H](Cc1c[nH]c2ccccc12)NC(=O)[C@@H](NC(=O)[C@H](CCCN=C(N)N)NC(=O)[C@H](CCCCN)NC(=O)[C@@H](NC(=O)[C@@H](N)CCCN=C(N)N)C(C)C)C(C)C)C(C)C)[C@@H](C)CC)[C@@H](C)O)C(C)C)C(=O)N[C@@H](C)C(=O)NCC(=O)N[C@@H](Cc1ccc(O)cc1)C(=O)N[C@@H](CC(N)=O)C(=O)N[C@@H](CC(C)C)C(=O)O [RVKRVWPLVIRTVIAGYNL]
- MIC [7]: ≥ 32 µM

SMILES: CC(C)C[C@H](NC(=O)[C@H](Cc1ccc(O)cc1)NC(=O)[C@@H]1CCCN1C(=O)[C@H](Cc1c[nH]c2ccccc12)NC(=O)[C@H](Cc1c[nH]c2ccccc12)NC(=O)[C@H](Cc1c[nH]c2ccccc12)NC(=O)[C@@H]1CCCN1C(=O)[C@H](Cc1ccc(O)cc1)NC(=O)[C@H](CCCN=C(N)N)NC(=O)[C@H](CCCN=C(N)N)NC(=O)[C@@H](N)C(C)C)C(=O)N[C@@H](CCCN=C(N)N)C(=O)N[C@@H](CCCN=C(N)N)C(N)=O [VRRYPWWWPYLRR]
- MIC (Escherichia coli): 10.3 µM (≈ 20 µg/mL)
- MIC (Staphylococcus aureus): 2.58 µM (≈ 5 µg/mL)

SMILES: CC[C@H](C)[C@H](NC(=O)CNC(=O)[C@H](CC(C)C)NC(=O)[C@@H](NC(=O)[C@@H](N)Cc1ccc(O)cc1)[C@@H](C)O)C(=O)N[C@@H](CCCCN)C(=O)N[C@H](C(=O)N[C@@H](CC(C)C)C(=O)N[C@@H](Cc1c[nH]c2ccccc12)C(=O)N[C@@H](CO)C(=O)N[C@@H](C)C(=O)N[C@@H](Cc1ccc(O)cc1)C(=O)N[C@@H](CCCCN)C(=O)N[C@@H](Cc1cnc[nH]1)C(=O)N[C@@H](CCCN=C(N)N)C(=O)N[C@@H](CCCCN)C(=O)N[C@H](C(=O)N[C@H](C(=O)N[C@@H](CCC(=O)O)C(=O)N[C@@H](CCCCN)C(=O)N[C@@H](CO)C(=O)N[C@@H](Cc1ccccc1)C(=O)N[C@@H](CC(N)=O)C(=O)N[C@@H](CCCCN)C(=O)NCC(=O)N[C@@H](Cc1ccccc1)C(=O)N[C@@H](Cc1ccc(O)cc1)C(=O)N[C@@H](Cc1cnc[nH]1)C(=O)O)[C@@H](C)CC)[C@@H](C)O)[C@@H](C)CC [YTLGIKILWSAYKHRKTIEKSFNKGFYH]
- MIC [5]: 50 µM (≈ 172 µg/mL)

From DBAASP
